Test results reported in publication PMC9171067, “A High Throughput Cell-Based Screen Assay for LINE-1 ORF1p Expression Inhibitors Using the In-Cell Western Technique” (Frontiers in Pharmacology, 2022).
Read-outs that look alike come from different tables or passages of the source.

What was measured:
LINE-1 ORF1p expression [1] = experiment: In-Cell Western (ICW) assay of LINE-1 ORF1p expression in T-47D cells; type: cell-based, human; conditions: for EC50: Homo sapiens, T47D, T-47D cells 15000/well, serially diluted compound, 24 h incubation, ICW, read-out: EC50 for diminishing LINE-1 ORF1p expression level; for Inhibition Activity (%) of LINE-1 ORF1p expression: ICW screen, T47D cells, compounds 10 μM, 48 h
Protocol: T-47D cells grown at 1×10^3 cells per well in 96-well plates (Corning Incorporated Costar, #3603). After 24 h incubation, chemical compounds (10 μM) were added to each well. After 48 h incubation, plates were fixed with 4% paraformaldehyde (PFA) for 20min at room temperature (RT). Then the cells were permeabilized with 0.2% Triton X-100 for 15min at RT, and blocked with Odyssey Blocking Buffer (TBS) (LI-COR, 9275000) for 1 h at RT. The cells were incubated at 4°C overnight with a rabbit monoclonal anti-ORF1p antibody (diluted 1:200, Abcam) and a mouse monoclonal anti-beta-actin antibody (diluted 1:250, Abcam) with gentle shakes. After five washes with PBS, the cells were stained with an IRDye® 800RD Goat anti-Rabbit antibody (diluted 1:400, LI-COR, #926–68071) and IRDye® 680CW Goat anti-Mouse antibody (1:600, LI-COR, #926–32210) at RT for 2 h. The microplates, were scanned with the Odyssey system (LI-COR), and the integrated fluorescence intensities representing the protein expression levels were acquired using Image Studio Ver 5.2 software ([Egorina et al., 2006]). Compared with DMSO control, compounds with an inhibition rate over 50% were defined as promising compounds.
(§1) The 50% cytotoxic concentration (CC50) values of 5 drug leads were measured using normal […] cell line HUVEC and breast cancer cell line T-47D at 6 different inhibitor concentrations. HUVEC and T47-D cell lines in the logarithmic phase were reseeded into 96-well plates (Nest Inc.) at a density of 1×10^3 cells/well and the plates were incubated for up to 2 days. At the end of each experiment, cells were incubated with 10 µl of the CCK-8 reagent (Vazyme) at 37°C for 2 h. The optical density (OD) at 450 nm was measured by a microplate reader (PerkinElmer Inc.) according to the manufacturer’s instructions. The data are expressed as % of the control. The experiments were repeated at least three times. The 50% effective concentration (EC50) of 5 drugs were measured using breast cancer cell line T-47D and 6 different inhibitor concentrations.

LINE-1 RNA = experiment: RT-qPCR of LINE-1 RNA level in T-47D cells; type: cell-based, human; conditions: IFNα17 200 Units/mL, 48 h
Text: Total RNA was extracted from cells using TRIZOL Reagent (Invitrogen). RNA was reverse transcribed to cDNA using MLV Reverse Transcriptase (Invitrogen) with random primers. The cDNAs were quantified using SsoFast EvaGreen Supermix (Bio-Rad) with Bio Rad iCycler iQ5 Real-Time PCR systems. Primer sequences for cDNAs were as follows: (5′-AATGAGATCACATGGACACAGGAAG-3’/5′- TGTATACATGTGCCATGCTGGTGC-3′).

LINE-1 5'-UTR promoter = experiment: L1-FL luciferase reporter driven by the LINE-1 5'-UTR promoter in 293 T cells; type: cell-based, human
LINE-1 ORF1p expression [2] = experiment: Immunoblotting of LINE-1 ORF1p in T-47D cells; type: cell-based, human; conditions: 48 h
Protocol: Cells were collected and lysed with NP-40 buffer (Beyotime). The protein lysis was boiled for 20 min at 100 C in SDS-PAGE loading buffer. Equal amounts of cell lysate were […]. Proteins were transferred onto a PVDF membrane, blocked with 5% skim milk, and probed with anti-ORF1p antibody (diluted 1:1000) and anti-β-actin antibody (diluted 1:5,000) at 4°C overnight. After four wash steps with PBS plus 0.1% Tween 20 (PBST), the membrane was incubated with 1:5,000 dilution of HRP-conjugated goat-anti-mouse, HRP-conjugated goat-anti-rabbit, IRDye® 800CW Goat anti-Rabbit 926–32,211 (1:10,000, LI-COR) and IRDye® 700CW Goat anti-Mouse 926–32,210 (1:10,000, LI-COR) secondary antibodies for 1 h at room temperature. After four wash steps with PBS plus 0.1% Tween 20 (PBST), signals were detected using Western Lightning chemiluminescence reagent or analyzed with the Odyssey infrared imaging system and the software program as specified in the Odyssey software manual.

NCl-H661 cells = experiment: CCK8 cell proliferation assay, NCl-H661; type: cell-based, human; conditions: IFNα17 200 or 500 Units/mL, 6 days
Protocol: (§2) To analyze the anti-proliferation effects of the three compounds and IFN17α against carcinoma cells, NCI-H661, NCI-H446, T47-D, MRC-5 and WI-38 cell lines in the logarithmic phase were reseeded into 96-well plates (Nest Inc.) at a density of 1×10^4 cells/well and the plates were incubated for 24 h. Next, IFN17α (200U/mL) was incubated with NCI-H661, NCI-H446, T47-D and MRC-5 cells, compounds #1(Hydroxyprogesterone), #2 (2,2':5′,2″-Terthiophene) and #3 (Ethynyl estradiol) were added at the concentrations of 10μM and 20 μM respectively, for consecutive 6 days. Cells were incubated with 10 µl of the CCK-8 reagent (Vazyme) each day at 37°C for 2 h. The optical density (OD) at 450 nm was measured by a microplate reader (PerkinElmer Inc.) according to the manufacturer’s instructions. The experiments were repeated at least three times.

NCl-H446 cells = experiment: CCK8 cell proliferation assay, NCl-H446; type: cell-based, human; conditions: IFNα17 200 or 500 Units/mL, 6 days
Protocol: as §2

T47D cells = experiment: CCK8 cell proliferation assay, T47D; type: cell-based, human; conditions: IFNα17 500 Units/mL, 6 days
Protocol: as §2, with “Next, IFN17α (200U/mL) was incubated with NCI-H661, NCI-H446, T47-D and MRC-5 cells, compounds #1(Hydroxyprogesterone), #2 (2,2':5′,2″-Terthiophene) and #3 (Ethynyl estradiol) were added at the concentrations of 10μM and 20 μM respectively, for consecutive 6 days.” left out

[3] = CCK-8 cell viability (CC50) in T-47D cells; type: cell-based; conditions: human
Protocol: as §1

[4] = tested on: LINE-1 retrotransposition; experiment: LINE-1 retrotransposition dual-luciferase assay (pWA367 reporter) in HeLa cells; type: cell-based, human; conditions: 10 μM
Protocol: This assay is utilized to measure the influence of the compounds on LINE-1 retrotransposition or the L1 5′UTR promoter activity. A 200:1 ratio of FL-L1 or pWA367 and pCMV-Rluc was transfected into HeLa cells, Rluc was served as a control to normalize the Firefly luciferase activity level. Six hours post-transfection, cells were reseeded in 96-well plates, and the plates were incubated for up to 1 day. Next, compounds #1:Hydroxyprogesterone (10μM, 20 μM), # 2: 2,2':5′,2″-Terthiophene (10μM, 20 μM) and # 3: Ethynyl estradiol (10μM, 20 μM) were added. 72–96 h after adding tested compounds to the cells, 25 μl passive lysis buffer was added in each well to lyse cells, and then, 20 μl lysate was detected by dual-luciferase reporter assay system (Promega, USA). Furthermore, the activity levels of Renilla and Firefly luciferase were quantified using Promega Luciferase Assay Kit (Promega) on a Berthold microplate reader.

Compound: IFNα17: interferon used as positive control in inhibiting LINE-1 ORF1p expression level in the ICW assay
- effect on ICW fluorescence value (ORF1p) (LINE-1 ORF1p expression [1]; T-47D cells, increasing doses of IFNα17): decreased fluorescence value in a dose-dependent way
- suppression of LINE-1 RNA level (LINE-1 RNA): over 60%
- effect on luciferase value (L1-FL) (LINE-1 5'-UTR promoter; IFNα17 200 Unit/mL, 500 Unit/mL): mild effects
- effect on LINE-1 ORF1p level by immunoblotting (LINE-1 ORF1p expression [2]): obviously decrease ORF1p level in a dose-dependent manner
- effect of IFNα17 on proliferation of NCl-H661 (NCl-H661 cells): significantly decrease
- effect of IFNα17 on proliferation of NCl-H446 (NCl-H446 cells): significantly decrease
- effect of IFNα17 on proliferation of T47D (T47D cells): inhibition became obvious

Compound: c1csc(-c2ccc(-c3cccs3)s2)c1 [#2, 2,2':5′,2″-Terthiophene]
- EC50 (LINE-1 ORF1p expression [1]): 32.3 µM
- Inhibition Activity (%) of LINE-1 ORF1p expression (LINE-1 ORF1p expression [1]): 56%
- CC50 [3]: 95.5 µM
- effect on luciferase value (L1-FL) (LINE-1 5'-UTR promoter; 10 μM): mild effects

Compound: C#C[C@]1(O)CC[C@H]2[C@@H]3CCc4cc(O)ccc4[C@H]3CC[C@@]21C [#3, Ethynyl estradiol]
- EC50 (LINE-1 ORF1p expression [1]): 12.4 µM
- Inhibition Activity (%) of LINE-1 ORF1p expression (LINE-1 ORF1p expression [1]): 60%
- CC50 ([3]; T-47D breast cancer cells, T-47D cells 1000/well, CCK-8, read-out: CC50): 91.4 µM
- suppression of luciferase value (L1-FL) (LINE-1 5'-UTR promoter; 10 μM): over 60%
- effect on LINE-1 retrotransposition (Fluc/Rluc) [4]: best potent activity

Compound: Cc1cn([C@H]2C=C[C@@H](CO)O2)c(=O)[nH]c1=O [d4T, reference compound]
- effect on LINE-1 retrotransposition (Fluc/Rluc) [4]: inhibited LINE-1 retrotransposition
- effect on LINE-1 ORF1p level by immunoblotting (LINE-1 ORF1p expression [2]): little effect
